Where a SMILES comes first, the peptide text is derived from it. The star is where a group is joined. Cbz = O=C(OCc1ccccc1)*
Columns and labels:
Format in all cases: cell-based, rhesus monkey
monkey oocytes [1] = experiment: In vitro development following fertilization by ICSI of oocytes exposed to MG-132; details: 4 hours, MI oocytes, after ICSI
Method: Fertilization by ICSI and culture conditions for TSCs was performed as described previously (Wolf, Thormahlen et al. 2004). After ICSI, injected oocytes were placed in 4-well dishes (Nalge Nunc International Co., Naperville, Ill.) containing protein-free HECM-9 medium and cultured at 37° C. in 6% CO2, 5% O2 and 89% N2. Cultures were maintained under paraffin oil. SCNT-derived TSCs at the 8-cell stage were transferred to fresh plates of HECM-9 medium supplemented with 5% fetal bovine serum (FBS; HyClone, Logan, Utah) and cultured to the blastocyst stage with the medium changed every other day.
Failure to induce nuclear remodeling could reflect either inherently low MPF levels in MII oocytes recovered from ovarian stimulation protocols or loss of MPF resulting from premature oocyte activation during manipulation. In order to evaluate the first possibility, nuclear donor cells were fused with intact (non-enucleated) MII oocytes (n=13). […] To test the hypothesis that failed nuclear remodeling reflects premature activation caused by the SCNT procedures and decline in MPF activity mediated by the proteasome system, proteasome catalytic activity was inhibited with MG-132 (Josefsberg et al., Biol Reprod 62(5): 1270-7, 2000; Zhou et al., Science 302(5648): 117 2003).

monkey oocytes [2] = experiment: Inhibition of 1st polar body extrusion in monkey oocytes during the MI-MII transition; details: for # Matured after exposure / # Matured during exposure: exposure time 4 hours, MI oocytes, N=5
monkey SCNT embryos [3] = experiment: Nuclear remodeling (lamin A/C immunostaining, chromatin condensation) in reconstructed SCNT embryos; details: for occurrence of remodeling events in the donor nucleus: when used in the SCNT protocols disclosed
Method: Monkey oocytes and SCNT-derived totipotent cells were fixed in 4% paraformaldehyde for 20 min. After permeabilization with 0.2% Triton X-100 and 0.1% Tween-20, non-specific reactions were blocked with 10% normal goat serum (Jackson ImmunoResearch Laboratories, Inc., West Grove, Pa.). SCNT-derived totipotent cells were then incubated for 40 min in mouse monoclonal antibody against Oct-4 (POU5F1) or lamin A/C (1:200; Santa Cruz Biotechnology, Inc., Santa Cruz, Calif.). After extensive washing, SCNT-derived totipotent cells were exposed to affinity-purified goat anti-mouse, secondary antibody conjugated with indocarbocyanine (Cy3, 1:200; Jackson ImmunoResearch). SCNT-derived totipotent cells were then co-stained with 2 μg/ml of 4′, 6-diamidino-2-phenylindole (DAPI) for 10 min, whole-mounted onto slides and examined under epifluorescence microscopy.
Mature MII oocytes were exposed to 5 μM MG-132 immediately after retrieval and maintained in this inhibitor throughout enucleation and somatic donor cell fusion procedures.
Monkey oocytes are particularly vulnerable to premature activation and MPF degradation during in vitro manipulations, a likely characteristic of primates but with potential relevance to SCNT success in other mammals.

monkey SCNT embryos [4] = experiment: Blastocyst development of monkey SCNT embryos produced by electrofusion
Description: Alternatively, donor cell nuclear transfer was accomplished by electrofusion. Electrofusion procedures were similar to the conventional protocols described previously (Mitalipov, Yeoman et al. 2002; Mitalipov, Kuo et al. 2003) with the exception that calcium acetates were removed from the fusion buffer. A disaggregated donor cell was aspirated into a micropipette and transferred into the perivitelline space of the cytoplast. Cell fusion was induced by two 50 μsec DC pulses of 2.7 kV/cm (Electro Square Porator T-820, BTX, Inc., San Diego, Calif.) in 0.25 M D-sorbitol buffer containing 0.5 mM Hepes and 1 mg/ml fatty acid-free BSA. Successful fusion was confirmed visually 20-30 min after electroporation by the disappearance of the donor cell in the perivitelline space.
Reconstructed embryos were activated 2 hours after fusion by exposure by exposure to […] ionomycin (CalBiochem, San Diego, Calif.) for 5 min in TALP/HEPES medium supplemented with 1 mg/ml BSA and then transferred for 5 min in TALP/HEPES medium supplemented with 30 mg/ml BSA and 2 mM 6-dimethylaminopurine followed by a 5 h incubation in HECM-9 medium containing 2 mM 6-dimethylaminopurine at 37° C. in 5% CO2, 5% O2 and 90% N2. Activated SCNT embryos were placed in HECM-9 medium and cultured as described above.

CC(C)C[C@@H](C=O)NC(=O)[C@H](CC(C)C)NC(=O)[C@H](CC(C)C)NC(=O)OCc1ccccc1 [MG-132] (Cbz-Leu-Leu-Leu-aldehyde)
# 8-cell (monkey oocytes [1]; MG-132 0.5 μM): 3 | # Blastocyst (monkey oocytes [1]; MG-132 0.5 μM): 3 | # Morula (monkey oocytes [1]; MG-132 0.5 μM): 3 | # 8-cell (monkey oocytes [1]; MG-132 2 μM): 2 | # Blastocyst (monkey oocytes [1]; MG-132 2 μM): 0 | # Morula (monkey oocytes [1]; MG-132 2 μM): 0 | # 8-cell (monkey oocytes [1]; MG-132 5 μM): 1 | # Blastocyst (monkey oocytes [1]; MG-132 5 μM): 0 | # Morula (monkey oocytes [1]; MG-132 5 μM): 0 | # Matured after exposure (monkey oocytes [2]; MG-132 0.5 μM): 1 | # Matured during exposure (monkey oocytes [2]; MG-132 0.5 μM): 3 | # Matured after exposure (monkey oocytes [2]; MG-132 2 μM): 3 | # Matured during exposure (monkey oocytes [2]; MG-132 2 μM): 2 | # Matured after exposure (monkey oocytes [2]; MG-132 5 μM): 4 | # Matured during exposure (monkey oocytes [2]; MG-132 5 μM): 0 | inhibition of first polar body extrusion during the MI to MII transition (monkey oocytes [2]; MG-132 at 5 μM, pilot study): efficient in inhibiting first polar body extrusion | nuclear remodeling of reconstructed embryos, by 4 hours after fusion (monkey SCNT embryos [3]; 5 μM MG-132 from retrieval throughout enucleation and fusion, by 4 hours): clear evidence of nuclear remodeling | nuclear remodeling of reconstructed embryos, 1 hour after fusion (monkey SCNT embryos [3]; 5 μM MG-132 from retrieval throughout enucleation and fusion, sampled 1 hour after fusion): slight chromatin condensation and moderate lamin A/C staining | MPF activity in monkey cytoplasts (monkey SCNT embryos [3]; MG-132 exposure at the higher concentration (5 μM)): preserved MPF activity | occurrence of remodeling events in the donor nucleus (monkey SCNT embryos [3]): increased the occurrence of remodeling events in the donor nucleus

Cn1c(=O)c2c(ncn2C)n(C)c1=O [caffeine]
time at which SCNT embryos reached the blastocyst stage (monkey SCNT embryos [4]; 2.5 mM caffeine for 2 hours immediately after electrofusion): ≤ 8 days | # Blastocysts forming by day 12 (monkey SCNT embryos [4]; SCNT plus caffeine, 2.5 mM for 2 hours after electrofusion): 0 | # Blastocysts forming by day 8 (monkey SCNT embryos [4]; SCNT plus caffeine, 2.5 mM for 2 hours after electrofusion, count): 4 | Blastocysts forming by day 8 (%) (monkey SCNT embryos [4]; SCNT plus caffeine, 2.5 mM for 2 hours after electrofusion, percentage): 31% | # cleaved (monkey SCNT embryos [4]; SCNT plus caffeine, 2.5 mM for 2 hours immediately after electrofusion, N=19): 13 | occurrence of remodeling events in the donor nucleus (monkey SCNT embryos [3]): increased the occurrence of remodeling events in the donor nucleus

— US7972849B2, “Primate pluripotent stem cells produced by somatic cell nuclear transfer” (Oregon Health & Science University, priority 2007, dated 2011)
